We go through 25 compounds from patent US7842710B2, “Carboxamides” (Bayer Cropscience AG, priority 2004, dated 2010).

The chromatographic logP is a lipophilicity value derived from retention on a column.

The structures appear in SMILES notation.

The subject of one data set is Podosphaera leucotricha. Briefly: Podosphaera test (apple)/protective. Format: in vivo. To be noted: protective, application rate 100 g/ha, evaluation ten days after inoculation, 0% = control, 100% = no infestation. How it is done: (§1) [table] To produce an appropriate active ingredient preparation, one part by weight of the active substance is mixed with the specified quantities of solvent and emulsifying agent, and the concentrate is diluted with water to the desired concentration. Young plants are sprayed with the active ingredient preparation at the specified application rate to test the effectiveness of protection. After the sprayed coating has dried, the plants are inoculated with an aqueous spore suspension of the apple mildew pathogen Podosphaera leucotricha. Then the plants are placed in the greenhouse at about 23° C. with relative humidity of about 70%. The evaluation is performed ten days after the inoculation. A degree of effectiveness rating of 0% corresponds to the control, with 100% indicating no infestation observed.

Data set [1] is described as follows: logP determination by HPLC on a reverse phase column (C18), EEC Directive 79/831 Annex V.A8. Format: physicochemical. To be noted: pH 2 as printed, HPLC C18, 43° C.
In the next data set the test system is Botrytis cinerea. The data set can be described thus: Botrytis test (bean)/protective. Format: in vivo. Conditions: protective, application rate 500 g/ha, evaluation two days after inoculation, 0% = control, 100% = no infestation. Here is the method: [table] To produce an appropriate active ingredient preparation, one part by weight of the active substance is mixed with the specified quantities of solvent and emulsifying agent, and the concentrate is diluted with water to the desired concentration. Young plants are sprayed with the active ingredient preparation at the specified application rate to test the effectiveness of protection. After the sprayed coating has dried, two small pieces of agar with cultured Botrytis cinerea are placed on each leaf. The inoculated plants are placed in a darkened chamber at about 20° C. and 100% relatively humidity. Two days after the inoculation, the size of the infestation spots on the leaves is evaluated. A degree of effectiveness rating of 0% corresponds to the control, with 100% indicating no infestation observed.

A further data set concerns Venturia inaequalis. Briefly: Venturia test (apple)/protective. Format: in vivo. Conditions: protective, application rate 100 g/ha, evaluation ten days after inoculation, 0% = control, 100% = no infestation. How it is done:
as §1, with “conidia” for “spore”, “scab” for “mildew”, “Venturia inaequalis and are then kept in an incubator at 20° C. and 100% relatively humidity for one day.” for “Podosphaera leucotricha.”, “21°” for “23°”, “90%.” for “70%.”

The subject of another data set is Puccinia recondita. The data set can be described thus: Puccinia test (wheat)/protective. Format: in vivo. To be noted: 240 h, protective, application rate 500 g/ha, evaluation ten days after inoculation, 0% = control, 100% = no infestation, read-out: Degree of effectiveness in %. How it is done: [table] To produce an appropriate active ingredient preparation, one part by weight of the active substance is mixed with the specified quantities of solvent and emulsifying agent, and the concentrate is diluted with water to the desired concentration. Young plants are sprayed with the active ingredient preparation at the specified application rate to test the effectiveness of protection. After the sprayed coating has dried, the plants are sprayed with a conidia suspension of Puccinia recondita. The plants are kept in an incubator at 20° C. and 100% relatively humidity for 48 hours. Then the plants are placed in a greenhouse at a temperature of about 20° C. and a relatively humidity of 80%, in order to promote the development of rust spots. The evaluation is performed ten days after the inoculation. A degree of effectiveness rating of 0% corresponds to the control, with 100% indicating no infestation observed.

For a further data set, the system named is Alternaria solani. The data set can be described thus: Alternaria test (tomato)/protective. To be noted: protective, application rate 750 g/ha, evaluation seven days after inoculation, 0% = control, 100% = no infestation. The format is in vivo. How it is done:
[table] To produce an appropriate active ingredient preparation, one part by weight of the active substance is mixed with the specified quantities of solvent and emulsifying agent, and the concentrate is diluted with water to the desired concentration. Young tomato plants are sprayed with the active ingredient preparation at the specified application rate to test the effectiveness of protection. One day after treatment, the plants are inoculated with a spore suspension of Alternaria solani and are kept for 24 hours at 100% relatively humidity and 20° C. Subsequently, the plants are kept at 96% relatively humidity and a temperature of 20° C. The evaluation is performed seven days after the inoculation. A degree of effectiveness rating of 0% corresponds to the control, with 100% indicating no infestation observed.

With `CCC(C)SC(C)c1ccccc1NC(=O)c1cn(C)nc1C(F)F` (stereo not shown) [drawing 484], the “Degree of effectiveness in %” value in the data set with Podosphaera leucotricha is on record as 94%.

On to `CC(C)S(=O)(=O)C(C)c1ccccc1[N+](=O)[O-]` (stereo not shown) [VII-4, 1-[1-(isopropylsulfonyl)ethyl]-2-nitrobenzene], for which the chromatographic logP in data set [1] turned out to be 1.99.

Consider `CCCC(C)SC(C)c1ccccc1NC(=O)c1cn(C)nc1C(F)F` (stereo not shown) [drawing 492], for which, in the data set on Botrytis cinerea, the “Degree of effectiveness in %” value was 97%.

With `CC(C)SC(C)c1ccccc1NC(=O)c1cn(C)nc1C(F)(F)F` (stereo not shown) [drawing 488], the “Degree of effectiveness in %” value with Botrytis cinerea is listed as 84%.

For `Cc1nn(C)c(F)c1C(=O)Nc1ccccc1C(C)SC(C)C` (stereo not shown) [drawing 485], the “Degree of effectiveness in %” value in the data set with Venturia inaequalis turned out to be 95%.

As to `CC(C)SC(C)c1ccccc1NC(=O)c1cn(C)nc1C(F)F` (stereo not shown) [drawing 483], the “Degree of effectiveness in %” value in the data set with Podosphaera leucotricha is given as 84%.

With `CCCC(C)SC(C)c1ccccc1NC(=O)c1sc(C)nc1C(F)(F)F` (stereo not shown) [drawing 490], the “Degree of effectiveness in %” value in the data set with Botrytis cinerea is 99%.

Regarding `CC(C)SC(C)c1ccccc1NC(=O)c1cn(C)nc1C(F)F` (stereo not shown) [drawing 489], the “Degree of effectiveness in %” value in the data set with Botrytis cinerea is listed as 100%.

In the case of `Cc1nn(C)c(F)c1C(=O)Nc1ccccc1C(C)SC(C)C` (stereo not shown) [drawing 482], the “Degree of effectiveness in %” value in the data set on Podosphaera leucotricha stood at 91%.

With `CCC(C)SC(C)c1ccccc1NC(=O)c1cn(C)nc1C(F)F` (stereo not shown) [drawing 487], in the data set with Venturia inaequalis, the “Degree of effectiveness in %” value turned out to be 99%.

In the case of `CC(C)SC(C)c1ccccc1NC(=O)c1cn(C)cc1C(F)(F)F` (stereo not shown) [drawing 510], the pest or weed control at 500 g/ha in the data set with Puccinia recondita came to 100%.

For `CCC(C)SC(C)c1ccccc1NC(=O)c1cn(C)nc1C` (stereo not shown) [drawing 504], the pest or weed control at 500 g/ha with Puccinia recondita came out at 100%.

Take `Cc1nn(C)c(F)c1C(=O)Nc1ccccc1C(C)SC(C)C` (stereo not shown) [drawing 516]: the “Degree of effectiveness in %” value with Alternaria solani was found to be 90%.

With `CC(C)OC(C)c1ccccc1NC(=O)c1cn(C)nc1C(F)(F)F` (stereo not shown) [drawing 500], the pest or weed control at 500 g/ha in the data set on Puccinia recondita was found to be 100%.

For `CCCC(C)SC(C)c1ccccc1NC(=O)c1sc(C)nc1C(F)(F)F` (stereo not shown) [drawing 486], in the data set on Venturia inaequalis, the “Degree of effectiveness in %” value is 89%.

Regarding `CCCC(C)SC(C)c1ccccc1NC(=O)c1sc(C)nc1C(F)F` (stereo not shown) [drawing 506], the pest or weed control at 500 g/ha in the data set on Puccinia recondita came out at 100%.

In the case of `CCC(C)SC(C)c1ccccc1NC(=O)c1cn(C)nc1C(F)(F)F` (stereo not shown) [drawing 491], the “Degree of effectiveness in %” value in the data set on Botrytis cinerea is 100%.

As for `CCC(C)SC(C)c1ccccc1NC(=O)c1c(C)nn(C)c1F` (stereo not shown) [drawing 517], the “Degree of effectiveness in %” value with Alternaria solani came to 95%.

For `Cc1nn(C)c(F)c1C(=O)Nc1ccccc1C(C)SC(C)C` (stereo not shown) [drawing 502], in the data set with Puccinia recondita, the pest or weed control at 500 g/ha was 100%.

With `CCC(C)SC(C)c1ccccc1NC(=O)c1sc(C)nc1C(F)F` (stereo not shown) [drawing 505], in the data set with Puccinia recondita, the pest or weed control at 500 g/ha came to 100%.

For `CC(C)OCc1ccccc1NC(=O)c1cn(C)nc1C(F)(F)F` [drawing 515], in the data set on Alternaria solani, the “Degree of effectiveness in %” value worked out at 95%.

For the compound `CC(C)SC(C)c1ccccc1NC(=O)c1cn(C)nc1C(F)(F)F` (stereo not shown) [drawing 494], the pest or weed control at 500 g/ha in the data set on Puccinia recondita was found to be 100%.

As to `CC(C)SC(C)c1ccccc1NC(=O)c1cn(C)cc1C(F)(F)F` (stereo not shown) [drawing 493], the “Degree of effectiveness in %” value with Botrytis cinerea is listed as 97%.

With `Cc1nn(C)c(Cl)c1C(=O)Nc1ccccc1C(C)SC1CCCC1` (stereo not shown), the pest or weed control at 500 g/ha with Puccinia recondita was determined as 100%.

Turning to `Cc1nn(C)c(Cl)c1C(=O)Nc1ccccc1C(C)SC(C)C` (stereo not shown), the pest or weed control at 500 g/ha in the data set with Puccinia recondita is 100%.
